Measurements published in patent US7897397B2, “Cell fusion promoter and utilization of the same” (Kowa Company, Ltd., priority 2004, dated 2011).

Tested on: myocardial cell/bone marrow cell co-culture system
Assay: Cell fusion in myocardial cell/bone marrow cell co-culture, fused cells (MF20- and EGFP-positive) counted by flow cytometry
Type: cell-based, rat
Source text: From a 1- to 2-day-old Wistar-Kyoto rat, the heart was removed, and myocardial cells were isolated therefrom and cultured. Bone marrow mononuclear cells separated from the bone marrow of an EGFP (enhanced green fluorescent protein) transgenic rat were introduced into the myocardial cells, followed by co-culture thereof.
Flow cytometry was used to quantitatively determine the number of these fused cells. The cells were fixed with paraformaldehyde in the same manner as above, then fluorescence-immunostained in a suspended state with primary antibody MF20, a biotin-conjugated anti-mouse antibody as secondary antibody and a streptavidin/PerCP-cye5.5 conjugate as tertiary antibody, and analyzed by flow cytometry. 50,000 cells were analyzed for each analysis. […] The cells in the gate R4 in FIG. 2 (D) were confirmed to be fused cells positive to both MF20 and EGFP.
Then, according to a similar manner to that described above, ATP was added at a concentration of 0 mM (control), 1 mM, 2 mM and 3 mM respectively to the myocardial cell/bone marrow cell co-culture system, and the number of fused cells was examined. Each group at the predetermined concentration of ATP was stained in the same manner as in FIG. 2 and analyzed by flow cytometry. The results are shown in the graphs in FIGS. 3A-D.
The result is shown in the graph in FIG. 4. In FIG. 4, the ratio (%) of the number of fused cells to the total number of cells is shown on the ordinate, and the concentration of ATP (0 mM, 1 mM, 2 mM and 3 mM) is shown on the abscissa. The asterisk (*) in FIG. 4 indicates significance (p<0.05) relative to the control group. As a result, it was confirmed that only about 0.1% fused cells were formed in the control group in the absence of ATP, while about 0.5% fused cells that are about 5-times as much as in the control group were formed in the group to which 1 or 2 mM ATP had been added.
According to the method of Minamino et al. (Minamino T., Gaussin V., DeMayo F. J., et al., Circ. Res. 2001; 88:587-592), the heart was removed from a 1- to 2-day-old Wistar-Kyoto rat and myocardial cells were isolated. […]
Then, the number of the fused cells was quantitatively determined by flow cytometry. After 1 week of co-culture, the cells were treated with trypsin and fixed with paraformaldehyde in the same manner as above, fluorescence-immunostained in a suspended state with primary antibody MF20 (labeled with PerCP-cye5.5 and captured as being positive to FL-3), biotin-conjugated anti-mouse Ig's antibody (BD Pharmingen) as secondary antibody, and streptavidin/PerCP-cye5.5 conjugate (BD Pharmingen) as tertiary antibody, and analyzed by flow cytometry. 50,000 cells were analyzed for each analysis. […]

Q: Which “number of the fused cells compared with the control group (in words)” value (1 mM or 2 mM ATP added, flow cytometry, 50,000 cells analyzed) does the source give for Nc1ncnc2c1ncn2[C@@H]1O[C@H](COP(=O)(O)OP(=O)(O)OP(=O)(O)O)[C@@H](O)[C@H]1O [ATP, adenosine 5′-triphosphate] here?
A: higher than in the control group

Q: What about the “fused cells relative to the control group (times as much)” value (1 or 2 mM ATP added vs control in the absence of ATP) of the same compound?
A: about 5 times

Q: And the “ratio (%) of the number of fused cells to the total number of cells” value (1 or 2 mM ATP added, 1 week of co-culture, control without ATP about 0.1%)?
A: about 0.5%

Q: What about the “ratio of the number of fused cells as compared with the control group (in words)” value (1 or 2 mM ATP added, p<0.05 relative to the control group) of the same compound?
A: increased significantly
